This experiment relates to Mus musculus. Put plainly: Reduction of neovascular tufts in retina of rhodopsin/VEGF transgenic mouse at 3 to 10 mg/kg, sc bid administered for 7 days started on post natal day 14 measured on post natal day 21 by FITC-conjugated GSA-lectin staining-based fluorescence microscopy. The experiment is classed as functional, organism-based.

Active and inactive are the calls of the source. The calls are words filed in the database; no cut-off is given here.

Activity data for 1 compound are collected here from ChEMBL document CHEMBL3879895, “Compositions and methods for treating ocular edema, neovascularization and related diseases” (2014).

Turning to `COC(=O)N[C@@H](Cc1ccccc1)C(=O)N[C@@H](Cc1ccc(NS(=O)(=O)O)cc1)c1csc(-c2csc(-c3cccs3)n2)n1`, the outcome was Active.
